Results published in patent publication US8722849B2, “Polypeptides” (Novo Nordisk A/S, priority 2011, dated 2014).
Starred links: 1 amine or outer side, 2 acyl side, 3 side chain; linkers in the order of their positions; H or OH if unused. Positions of bridges follow the written chain, without caps; N, C: chain ends. Residues, ends and D or L forms follow the SMILES beside them. *: point of attachment. C20 diacid = O=C(O)CCCCCCCCCCCCCCCCCCC(=O)*; C18 diacid = O=C(O)CCCCCCCCCCCCCCCCC(=O)*; γGlu = O=C(O)[C@H](CCC(=O)[*:2])N[*:1]

Assay: Assay (III) ThT fibrillation assay for physical stability
Assay type: physicochemical
In short: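 Freshly prepared formulations, pH-adjusted, with 1 μM ThT; four or eight replicates incubated at 37 °C under 960 rpm orbital shaking. Fluorescence (ex 444/em 485 nm) read every 20 min; […]. Peptide concentration measured by RP-HPLC before and after the run.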

Row | ThT pH 4.0 lag time (Table 8) [h] | ThT pH 4.0 lag time (ThT fibrillation assay) [h] | ThT pH 4.0 lag time (h) (ThT fibrillation assay) | ThT pH 4.0 lag time (Table 9) [h] | SMILES
1 | 30 | 30 | 30 | – | CC[C@H](C)[C@H](NC(=O)[C@@H]1CCCN1C(=O)CNC(=O)[C@H](Cc1ccccc1)NC(=O)[C@H](CC(N)=O)NC(=O)[C@H](CC(N)=O)NC(=O)[C@H](CO)NC(=O)[C@H](CO)NC(=O)[C@H](Cc1c[nH]cn1)NC(=O)[C@H](CCCNC(=N)N)NC(=O)[C@H](CC(C)C)NC(=O)[C@H](Cc1ccccc1)NC(=O)[C@H](CCC(=O)O)NC(=O)[C@H](C)NC(=O)[C@H](CC(C)C)NC(=O)[C@H](CCCNC(=N)N)NC(=O)[C@H](CCC(N)=O)NC(=O)[C@@H](NC(=O)[C@H](C)NC(=O)[C@@H]1CSSC[C@H](NC(=O)[C@H](CCCCN)NC(=O)[C@H](CCC(=O)O)NC(=O)CC[C@H](NC(=O)CCCCCCCCCCCCCCCCC(=O)O)C(=O)O)C(=O)N[C@@H](CC(N)=O)C(=O)N[C@@H]([C@@H](C)O)C(=O)N[C@@H](C)C(=O)N[C@@H]([C@@H](C)O)C(=O)N1)[C@@H](C)O)C(=O)N[C@@H](CC(C)C)C(=O)N1CCC[C@H]1C(=O)N1CCC[C@H]1C(=O)N[C@H](C(=O)N[C@@H](CC(N)=O)C(=O)N[C@H](C(=O)NCC(=O)N[C@@H](CO)C(=O)N[C@@H](Cc1c[nH]cn1)C(=O)N[C@H](C(=O)N[C@@H](Cc1ccc(O)cc1)C(N)=O)[C@@H](C)O)C(C)C)[C@@H](C)O [Example 62, N-alpha-[(S)-4-Carboxy-4-(17-carboxyheptadecanoylamino)butyryl]-Glu-[Glu14,Arg17,His35]-pramlintide] ({C18 diacid-γGlu}-EKCNTATCATQRLAEFLRHSSNNFGPILPPTNVGSHTY-NH2; disulfide 3-8 (inferred); C-terminus assumed)
2 | >45 | >45 | >45 | – | CC(C)C[C@H](NC(=O)[C@H](CCCNC(=N)N)NC(=O)[C@H](CCC(N)=O)NC(=O)[C@@H](NC(=O)[C@H](C)NC(=O)[C@@H]1CSSC[C@H](NC(=O)[C@H](CCCCN)NC(=O)CC[C@H](NC(=O)CCCCCCCCCCCCCCCCCCC(=O)O)C(=O)O)C(=O)N[C@@H](CC(N)=O)C(=O)N[C@@H]([C@@H](C)O)C(=O)N[C@@H](C)C(=O)N[C@@H]([C@@H](C)O)C(=O)N1)[C@@H](C)O)C(=O)N[C@@H](C)C(=O)N[C@@H](CCC(=O)O)C(=O)N[C@@H](Cc1ccccc1)C(=O)N[C@@H](CC(C)C)C(=O)N[C@@H](CCCNC(=N)N)C(=O)N[C@@H](Cc1c[nH]cn1)C(=O)N[C@@H](CO)C(=O)N[C@@H](CO)C(=O)N[C@@H](CC(N)=O)C(=O)N[C@@H](CC(N)=O)C(=O)N[C@@H](Cc1ccccc1)C(=O)NCC(=O)N[C@@H](C)C(=O)N1CCC[C@H]1C(=O)N[C@@H](CC(C)C)C(=O)N[C@@H](CO)C(=O)N[C@@H](CO)C(=O)N[C@H](C(=O)N[C@@H](CC(N)=O)C(=O)N[C@H](C(=O)NCC(=O)N[C@@H](CO)C(=O)N[C@@H](Cc1c[nH]cn1)C(=O)N[C@H](C(=O)N[C@@H](Cc1ccc(O)cc1)C(N)=O)[C@@H](C)O)C(C)C)[C@@H](C)O [Example 65, N-alpha-[(S)-4-Carboxy-4-(19-carboxynonadecanoylamino)butyryl]-[Glu14,Arg17,Ala25,Pro26,Ser28,Ser29,His35]-pramlintide] ({C20 diacid-γGlu}-KCNTATCATQRLAEFLRHSSNNFGAPLSSTNVGSHTY-NH2; disulfide 2-7 (inferred); C-terminus assumed)
3 | – | >45 | >45 | – | CC[C@H](C)[C@H](NC(=O)[C@@H]1CCCN1C(=O)CNC(=O)[C@H](Cc1ccccc1)NC(=O)[C@H](CC(N)=O)NC(=O)[C@H](CC(N)=O)NC(=O)[C@H](CO)NC(=O)[C@H](CO)NC(=O)[C@H](Cc1c[nH]cn1)NC(=O)[C@H](Cc1c[nH]cn1)NC(=O)[C@H](CC(C)C)NC(=O)[C@H](Cc1ccccc1)NC(=O)[C@H](CCC(=O)O)NC(=O)[C@H](C)NC(=O)[C@H](CC(C)C)NC(=O)[C@H](CCCNC(=N)N)NC(=O)[C@H](CCC(N)=O)NC(=O)[C@@H](NC(=O)[C@H](C)NC(=O)[C@@H]1CSSC[C@H](NC(=O)[C@H](CCCCN)NC(=O)[C@H](Cc2c[nH]cn2)NC(=O)CC[C@H](NC(=O)CCCCCCCCCCCCCCCCCCC(=O)O)C(=O)O)C(=O)N[C@@H](CC(N)=O)C(=O)N[C@@H]([C@@H](C)O)C(=O)N[C@@H](C)C(=O)N[C@@H]([C@@H](C)O)C(=O)N1)[C@@H](C)O)C(=O)N[C@@H](CC(C)C)C(=O)N1CCC[C@H]1C(=O)N1CCC[C@H]1C(=O)N[C@H](C(=O)N[C@@H](CC(N)=O)C(=O)N[C@H](C(=O)NCC(=O)N[C@@H](CO)C(=O)N[C@@H](Cc1c[nH]cn1)C(=O)N[C@H](C(=O)N[C@@H](Cc1ccc(O)cc1)C(N)=O)[C@@H](C)O)C(C)C)[C@@H](C)O [Example 66, N-alpha-[(S)-4-Carboxy-4-(19-carboxynonadecanoylamino)butyryl]-His-[Glu14,His17,His35]-pramlintide] ({C20 diacid-γGlu}-HKCNTATCATQRLAEFLHHSSNNFGPILPPTNVGSHTY-NH2; disulfide 3-8 (inferred); C-terminus assumed)
4 | – | >45 | >45 | – | CC[C@H](C)[C@H](NC(=O)[C@@H]1CCCN1C(=O)CNC(=O)[C@H](Cc1ccccc1)NC(=O)[C@H](CC(N)=O)NC(=O)[C@H](CC(N)=O)NC(=O)[C@H](CO)NC(=O)[C@H](CO)NC(=O)[C@H](Cc1c[nH]cn1)NC(=O)[C@H](Cc1c[nH]cn1)NC(=O)[C@H](CC(C)C)NC(=O)[C@H](Cc1ccccc1)NC(=O)[C@H](CCC(=O)O)NC(=O)[C@H](C)NC(=O)[C@H](CC(C)C)NC(=O)[C@H](CCCNC(=N)N)NC(=O)[C@H](CCC(N)=O)NC(=O)[C@@H](NC(=O)[C@H](C)NC(=O)[C@@H]1CSSC[C@H](NC(=O)[C@H](Cc2c[nH]cn2)NC(=O)CC[C@H](NC(=O)CCCCCCCCCCCCCCCCCCC(=O)O)C(=O)O)C(=O)N[C@@H](CC(N)=O)C(=O)N[C@@H]([C@@H](C)O)C(=O)N[C@@H](C)C(=O)N[C@@H]([C@@H](C)O)C(=O)N1)[C@@H](C)O)C(=O)N[C@@H](CC(C)C)C(=O)N1CCC[C@H]1C(=O)N1CCC[C@H]1C(=O)N[C@H](C(=O)N[C@@H](CC(N)=O)C(=O)N[C@H](C(=O)NCC(=O)N[C@@H](CO)C(=O)N[C@@H](Cc1c[nH]cn1)C(=O)N[C@H](C(=O)N[C@@H](Cc1ccc(O)cc1)C(N)=O)[C@@H](C)O)C(C)C)[C@@H](C)O [Example 76, N-alpha-[(S)-4-Carboxy-4-(19-carboxynonadecanoylamino)butyryl]-[His1,Glu14,His17,His35]-pramlintide] ({C20 diacid-γGlu}-HCNTATCATQRLAEFLHHSSNNFGPILPPTNVGSHTY-NH2; disulfide 2-7 (inferred); C-terminus assumed)
5 | >45 | >45 | >45 | >45 | CC[C@H](C)[C@H](NC(=O)[C@@H]1CCCN1C(=O)CNC(=O)[C@H](Cc1ccccc1)NC(=O)[C@H](CC(N)=O)NC(=O)[C@H](CC(N)=O)NC(=O)[C@H](CO)NC(=O)[C@H](CO)NC(=O)[C@H](Cc1c[nH]cn1)NC(=O)[C@H](CCCNC(=N)N)NC(=O)[C@H](CC(C)C)NC(=O)[C@H](Cc1ccccc1)NC(=O)[C@H](CCC(=O)O)NC(=O)[C@H](C)NC(=O)[C@H](CC(C)C)NC(=O)[C@H](CCCNC(=N)N)NC(=O)[C@H](CCC(N)=O)NC(=O)[C@@H](NC(=O)[C@H](C)NC(=O)[C@@H]1CSSC[C@H](NC(=O)CNC(=O)CC[C@H](NC(=O)CCCCCCCCCCCCCCCCCCC(=O)O)C(=O)O)C(=O)N[C@@H](CC(N)=O)C(=O)N[C@@H]([C@@H](C)O)C(=O)N[C@@H](C)C(=O)N[C@@H]([C@@H](C)O)C(=O)N1)[C@@H](C)O)C(=O)N[C@@H](CC(C)C)C(=O)N1CCC[C@H]1C(=O)N1CCC[C@H]1C(=O)N[C@H](C(=O)N[C@@H](CC(N)=O)C(=O)N[C@H](C(=O)NCC(=O)N[C@@H](CO)C(=O)N[C@@H](CC(N)=O)C(=O)N[C@H](C(=O)N1CCC[C@H]1C(N)=O)[C@@H](C)O)C(C)C)[C@@H](C)O [Example 88, N-alpha-[(S)-4-Carboxy-4-(19-carboxynonadecanoylamino)butyryl]-[Gly1,Glu14,Arg17,Pro37]-pramlintide] ({C20 diacid-γGlu}-GCNTATCATQRLAEFLRHSSNNFGPILPPTNVGSNTP-NH2; disulfide 2-7 (inferred); C-terminus assumed)
6 | >45 | >45 | >45 | >45 | CC[C@H](C)[C@H](NC(=O)[C@@H]1CCCN1C(=O)CNC(=O)[C@H](Cc1ccccc1)NC(=O)[C@H](CC(N)=O)NC(=O)[C@H](CC(N)=O)NC(=O)[C@H](CO)NC(=O)[C@H](CO)NC(=O)[C@H](Cc1c[nH]cn1)NC(=O)[C@H](CCCNC(=N)N)NC(=O)[C@H](CC(C)C)NC(=O)[C@H](Cc1ccccc1)NC(=O)[C@H](CCC(=O)O)NC(=O)[C@H](C)NC(=O)[C@H](CC(C)C)NC(=O)[C@H](CCCNC(=N)N)NC(=O)[C@H](CCC(N)=O)NC(=O)[C@@H](NC(=O)[C@H](C)NC(=O)[C@@H]1CSSC[C@H](NC(=O)[C@H](Cc2c[nH]cn2)NC(=O)CC[C@H](NC(=O)CCCCCCCCCCCCCCCCCCC(=O)O)C(=O)O)C(=O)N[C@@H](CC(N)=O)C(=O)N[C@@H]([C@@H](C)O)C(=O)N[C@@H](C)C(=O)N[C@@H]([C@@H](C)O)C(=O)N1)[C@@H](C)O)C(=O)N[C@@H](CC(C)C)C(=O)N1CCC[C@H]1C(=O)N1CCC[C@H]1C(=O)N[C@H](C(=O)N[C@@H](CC(N)=O)C(=O)N[C@H](C(=O)NCC(=O)N[C@@H](CO)C(=O)N[C@@H](CC(N)=O)C(=O)N[C@H](C(=O)N1CCC[C@H]1C(N)=O)[C@@H](C)O)C(C)C)[C@@H](C)O [Example 90, N-alpha-[(S)-4-Carboxy-4-(19-carboxynonadecanoylamino)butyryl]-[His1,Glu14,Arg17,Pro37]-pramlintide] ({C20 diacid-γGlu}-HCNTATCATQRLAEFLRHSSNNFGPILPPTNVGSNTP-NH2; disulfide 2-7 (inferred); C-terminus assumed)
